Source: patent US5817840A, “Water soluble taxol derivatives” (The Scripps Research Institute, priority 1997, dated 1998)
“Also recorded” adds a separate entry of the source.

Experiments:
[1] = cited from earlier work
[2] = test system: HT-29 (human adenocarcinoma, colon); experiment: Cytotoxicity, Example 8; format: cell-based; details: HT-29, 72 h
Experimental: (§1) Tumor or normal cells were cultured in 96-well plates with the test compound in 200 μl of RPMI supplemented with 10% fetal bovine serum (Hyclone, Salt Lake City, Utah) at 37° C. in a humidified atmosphere containing 5% CO2 in air for 72 hours. Sulforhodamine B dissolved in 1% acetic acid was added, and the plates were incubated for 30 minutes at ambient temperature, washed with 1% acetic acid, and blotted. To the air-dried plates were added 100 μl of […] unbuffered TRIS base (pH 10.5) with shaking. The optical densities of the plates were measured with a microplate reader (Molecular Devices Thermomax) at 540 nm. The concentration of compound required to reduce the absorbance to 50% of control samples was recorded as IC50.
(§2) NHDF: Normal human dermal fibroblast (available from Clouelics Corp., San Diego, Calif.); HLF-1: Normal human diploid lung; W1-38; Normal human diploid lung; CHO; Chinese hamster ovary; SK-MEL-28: Melanoma; CAPAN-1: Pancreatic carcinoma; H322: lung carcinoma; MCF-7; Breast carcinoma; BT-549; Human breast ductal carcinoma; OVCAR-3: Human ovarian carcinoma; HT-29: Human adenocarcinoma, colon; SIHA: Human squamous carcinoma crvx; 786-0: Human perirenal cell adenocarci; PC-3: Human prostate adenocarcinoma; HL-60: Human promyelomic leukemia; MOLT-4: Human T-cell leukemia. All cell lines except NHDF are available from the American Tissue Culture Collection, Rockville, Md.

SK-MEL-28 (melanoma) = experiment: Cytotoxicity, Example 8; format: cell-based; details: Homo sapiens, SK-MEL-28, 72 h
Experimental: as §1, §2

[3] = test system: S1HA (human squamous carcinoma crvx); experiment: Cytotoxicity, Example 8; format: cell-based; details: 72 h
Experimental: as §1, §2

MCF-7 (breast carcinoma) [4] = experiment: Cytotoxicity, Example 8; format: cell-based; details: Homo sapiens, MCF7, 72 h
Experimental: as §1, §2

[5] = test system: NHDF (normal human dermal fibroblast); experiment: Cytotoxicity, Example 8; format: cell-based; details: 72 h
Experimental: as §1, §2

H322 (lung carcinoma) [6] = experiment: Cytotoxicity, Example 8; format: cell-based; details: NCI-H322, 72 h
Experimental: as §1, §2

[7] = test system: CAPAN-1 (pancreatic carcinoma); experiment: Cytotoxicity, Example 8; format: cell-based; details: Homo sapiens, CAPAN-1, 72 h
Experimental: as §1, §2

[8] = test system: HLF-1 (normal human diploid lung); experiment: Cytotoxicity, Example 8; format: cell-based; details: HLF1, 72 h
Experimental: as §1, §2

[9] = test system: 786-0 (human perirenal cell adenocarci); experiment: Cytotoxicity, Example 8; format: cell-based; details: 786-0, 72 h
Experimental: as §1, §2

[10] = test system: BT-549 (human breast ductal carcinoma); experiment: Cytotoxicity, Example 8; format: cell-based; details: BT-549, 72 h
Experimental: as §1, §2

[11] = test system: CHO (Chinese hamster ovary); experiment: Cytotoxicity, Example 8; format: cell-based; details: Cricetulus griseus, 72 h
Experimental: as §1, §2

[12] = test system: OVCAR-3 (human ovarian carcinoma); experiment: Cytotoxicity, Example 8; format: cell-based; details: OVCAR-3, 72 h
Experimental: as §1, §2

[13] = test system: W1-38 (normal human diploid lung); experiment: Cytotoxicity, Example 8; format: cell-based; details: W138, 72 h
Experimental: as §1, §2

[14] = test system: PC-3 (human prostate adenocarcinoma); experiment: Cytotoxicity, Example 8; format: cell-based; details: 72 h
Experimental: as §1, §2

[15] = test system: BALB/c 3T3 (normal mouse embryo); experiment: Cytotoxicity (sulphorhodamine B), normal cell line, Table 1B; format: cell-based; details: BALB/c3T3, 72 h
SIHA (cervix carcinoma) = experiment: Cytotoxicity (sulphorhodamine B), cancer cell line, Table 1B; format: cell-based; details: Homo sapiens, SiHa, 72 h
NHDF (normal human skin) = experiment: Cytotoxicity (sulphorhodamine B), normal cell line, Table 1B; format: cell-based; details: 72 h
[16] = test system: PC-3 (prostate carcinoma); experiment: Cytotoxicity (sulphorhodamine B), cancer cell line, Table 1B; format: cell-based; details: Homo sapiens, 72 h
[17] = test system: MOLT-4 (T-cell leukaemia); experiment: as above; format: cell-based; details: Homo sapiens, MOLT-4, 72 h
physchem = experiment: physchem
Experimental: The solubilities of the synthesized protaxols in D2 O were determined by 1H NMR spectroscopy.
The resulting mixture was centrifuged for 20 minutes and the supernatant saturated solution was analysed by ^1 H NMR spectroscopy using a Bruker AMX-400 instrument and methanol or pyridine as internal standard. The concentration of the compound was determined by comparing several signals with the CH3 signal of methanol or the NCH signal of pyridine.

[18] = test system: 786-0 (renal cell carcinoma); experiment: Cytotoxicity (sulphorhodamine B), cancer cell line, Table 1B; format: cell-based; details: Homo sapiens, 786-0, 72 h
HT-29 (colon carcinoma) = experiment: as above; format: cell-based; details: Homo sapiens, HT-29, 72 h
[19] = test system: RPMI-7666 (normal human PBLs); experiment: Cytotoxicity (sulphorhodamine B), normal cell line, Table 1B; format: cell-based; details: 72 h
[20] = test system: UCLA-P-3 (lung carcinoma); experiment: Cytotoxicity (sulphorhodamine B), cancer cell line, Table 1B; format: cell-based; details: Homo sapiens, UCLA P-3, 72 h
[21] = test system: broad spectrum of cell lines; experiment: Cytotoxicity against a broad spectrum of cell lines (overall); details: Table 1B
Experimental: The protaxols synthesized in this study were tested against a broad spectrum of cell lines ranging from the multiple-drug resistant ovarian (OVCAR-3) to lung (H-322) and leukemia (MOLT-4) cells in order to assess cytotoxicity, cell-type selectivity, and duration of action.
The cytotoxicities were determined using the sulphorhodamine B assay method (Skehan, P. et al. J. Nat. Canc. Inst. 82, 1107 (1990)).

[22] = test system: CHO (Chinese hamster ovary); experiment: Cytotoxicity (sulphorhodamine B), normal cell line, Table 1B; format: cell-based; details: Cricetulus griseus, 72 h
SK (melanoma) = experiment: Cytotoxicity (sulphorhodamine B), cancer cell line, Table 1B; format: cell-based; details: 72 h
[23] = test system: BT-549 (breast carcinoma); experiment: as above; format: cell-based; details: Homo sapiens, BT-549, 72 h
[24] = test system: CHO (normal human mammary); experiment: Cytotoxicity (sulphorhodamine B), normal cell line, Table 1B; format: cell-based; details: Homo sapiens, 72 h
tubulin / microtubules = experiment: Tubulin polymerization-depolymerization (CaCl2-induced depolymerization of microtubules); format: biochemical; details: 10^-6 M; 1.0 mg/mL tubulin; CaCl2 0.25 mM after 16 minutes; 37° C.; initial, no prior release
Experimental: Tubulin polymerization to microtubules is promoted by GTP, whereas CaCl2 causes depolymerization of microtubules back to tubulin (FIG. 3A). […] The designed protaxol 5 was tested for its ability to stabilize microtubules formed from tubulin via the action of GTP. […] These findings are in agreement with the previously reported loss of activity resulting from blocking the C-2' hydroxyl group.
Tubulin polynerization-depolymerization experiments with taxol and designed protaxol 5 are illustrated in FIG. 3. CaCl2 -promoted depolymerization of microtubules was suppressed by taxol and protaxol 5 (after taxol release).
These measurements may be conducted at 37° C. following a recently developed procedure described by R. Merlock and W. Wrasidlo (Analytical Biochemistry, 1993). In each case 1.0 mM GTP may be employed to promote initial polymerization of tubulin.
D: Tubulin (1.0 mg/mL) with protaxol 5 (10^-6 M) after release of taxol (as determined by HPLC, essentially quantitative conversion).

L1210 (mouse leukaemia) = experiment: Cytotoxicity (sulphorhodamine B), cancer cell line, Table 1B; format: cell-based; details: L1210, 72 h
MCF-7 (breast carcinoma) [25] = experiment: as above; format: cell-based; details: Homo sapiens, MCF7, 72 h
Capan-1 (pancreatic) = experiment: as above; format: cell-based; details: Homo sapiens, CAPAN-1, 72 h
H322 (lung carcinoma) [26] = experiment: as above; format: cell-based; details: NCI-H322, 72 h
[27] = test system: HL-60 (promyel carcinoma); experiment: as above; format: cell-based; details: Homo sapiens, HL-60, 72 h
[28] = test system: OVCAR-3 (ovarian carcinoma); experiment: as above; format: cell-based; details: Homo sapiens, OVCAR-3, 72 h

For `CC(=O)O[C@H]1C(=O)[C@@]2(C)[C@H]([C@H](OC(=O)c3ccccc3)[C@]3(O)C[C@H](OC(=O)[C@H](O)[C@@H](NC(=O)c4ccccc4)c4ccccc4)C(C)=C1C3(C)C)[C@]1(OC(C)=O)CO[C@@H]1C[C@@H]2O` [Taxol], the “water solubility of taxol” value [1] is given as “only slightly soluble in water; also recorded: essentially insoluble in water”, the IC50 [2] is given as 0.098 µM and the IC50 (SK-MEL-28 (melanoma)) is given as 100 µM. The IC50 [3] was 1110 µM, the IC50 (MCF-7 (breast carcinoma) [4]) was 64.4 µM and the IC50 [5] was 208 µM. The IC50 (H322 (lung carcinoma) [6]) was 122 µM, the IC50 [7] was 0.098 µM and the IC50 [8] was 63 µM. For the same compound, the IC50 [9] was 0.184 µM, the IC50 [10] was 44.6 µM and the IC50 [11] was 53.5 µM. For the same compound, the IC50 [12] was 0.098 µM, the IC50 [13] was 60.6 µM and the IC50 [14] was 69.1 µM. It also gave an IC50 [15] of 1 µM, an IC50 (SIHA (cervix carcinoma)) of 10 µM and an IC50 (NHDF (normal human skin)) of 1 µM. The IC50 [16] was 1 µM, the IC50 [17] was < 0.001 µM and the Water solubility (physchem) was < 100 µg/mL. For the same compound, the IC50 [18] was 0.1 µM, the IC50 (HT-29 (colon carcinoma)) was < 0.001 µM and the IC50 [19] was 100 µM. For the same compound, the IC50 [20] was < 0.001 µM, the “selectivity against cancer cells versus normal cells” value [21] was “rather impressive selectivity” and the IC50 [22] was 100 µM. The IC50 (SK (melanoma)) was 10 µM, the IC50 [23] was 0.001 µM and the IC50 [24] was 100 µM. For the same compound, the “prevention of CaCl2-induced depolymerization of microtubules” value (tubulin / microtubules) was “stabilizes microtubules against CaCl2-induced depolymerization; also recorded: suppressed; also recorded: did not cause depolymerization”, the IC50 (L1210 (mouse leukaemia)) was 1 µM and the IC50 (MCF-7 (breast carcinoma) [25]) was < 10 µM. The IC50 (Capan-1 (pancreatic)) was < 0.001 µM, the IC50 (H322 (lung carcinoma) [26]) was 0.001 µM and the IC50 [27] was < 0.001 µM. The IC50 [28] was < 0.001 µM.
